The record followed here is patent US9663464B2, “Carbazole derivatives acting on 5-HT7 receptor” (KOREA INSTITUTE OF SCIENCE AND TECHNOLOGY, priority 2015, dated 2017).

Structures are written as SMILES. Structures can show the parent of a compound that is named as a salt.

By Ki is commonly meant a measure of affinity in units of concentration, obtained from inhibition or displacement. The term inhibition denotes the relative decrease from the control value, in per cent.

Assay [1] deals with T1, 5-HT2C (Homo sapiens, UniProt P28335).
T1 sequence (P28335 33-458): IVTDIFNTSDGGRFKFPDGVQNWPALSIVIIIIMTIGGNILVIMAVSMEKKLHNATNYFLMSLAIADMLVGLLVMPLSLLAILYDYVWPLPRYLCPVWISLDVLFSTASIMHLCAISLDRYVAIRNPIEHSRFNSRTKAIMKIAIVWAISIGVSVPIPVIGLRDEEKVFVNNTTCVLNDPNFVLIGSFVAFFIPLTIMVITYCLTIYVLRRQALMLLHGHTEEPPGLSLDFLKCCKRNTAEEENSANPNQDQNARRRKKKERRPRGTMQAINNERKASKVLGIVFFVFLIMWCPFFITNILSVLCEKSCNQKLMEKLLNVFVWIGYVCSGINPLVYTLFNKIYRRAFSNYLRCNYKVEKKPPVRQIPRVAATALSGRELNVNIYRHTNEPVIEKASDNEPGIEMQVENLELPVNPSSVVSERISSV
In words: 5-HT2C receptor inhibition/binding (Tables 1-3).

The target of assay [2] is T2, human gene recombinant 5-HT7 receptor expressed in CHO cells (Homo sapiens, UniProt P34969).
T2 construct: expressed in transfected cells; host or cells: CHO cells (membrane preparation)
T2 sequence (P34969 whole entry): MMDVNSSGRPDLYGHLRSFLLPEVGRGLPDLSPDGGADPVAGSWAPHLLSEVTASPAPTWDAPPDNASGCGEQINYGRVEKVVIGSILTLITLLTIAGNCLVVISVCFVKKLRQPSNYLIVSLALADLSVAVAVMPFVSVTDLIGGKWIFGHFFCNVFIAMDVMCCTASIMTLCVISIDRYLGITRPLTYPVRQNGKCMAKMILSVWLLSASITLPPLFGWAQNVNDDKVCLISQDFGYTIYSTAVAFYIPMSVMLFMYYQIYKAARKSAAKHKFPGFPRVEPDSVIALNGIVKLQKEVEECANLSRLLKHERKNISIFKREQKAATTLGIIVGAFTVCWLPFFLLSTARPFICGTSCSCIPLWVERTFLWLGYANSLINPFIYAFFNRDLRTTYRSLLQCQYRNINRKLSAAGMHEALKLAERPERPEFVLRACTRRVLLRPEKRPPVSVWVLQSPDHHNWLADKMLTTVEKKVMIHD
The assay is described as follows: Binding affinity for the 5-HT7 serotonin receptor ([3H]LSD radioligand). As for the experimental part:
In this example, the human gene recombinant 5-HT7 receptor expressed in CHO cells was used. 1 nM [^3H]LSD, 5-HT7 receptor membrane (15 μg/well), a test drug, 10 mM MgCl2, 50 mM Tris-HCl buffer (pH 7.4) containing 0.1 mM EDTA, etc. were added to a vessel until the final volume reached 0.25 ml. The test drug was used at various concentrations. The mixture was cultured at 25° C. for 90 min. The culture was rapidly filtered through a Whatman GF/C glass fiber filter, which had been previously wetted with 0.3% polyethyleneimine using a Brandel harvester, to quench the reaction. The reaction mixture was washed with cold 50 mM Tris-HCl buffer. The filter was covered with MeltiLex, sealed in a sample bag, and dried in an oven. Counting was performed using MicroBeta (Wallac) and nonspecific binding was measured in the presence of […]. The K value of the test drug was obtained from nonlinear regression analysis (GraphPad Prism Program, San Diego, USA) of isotherms obtained by repeatedly performing the experiment on the drug at 10-11 stage concentrations in two test tubes (each twice).
The % inhibition values of the inventive compounds having different Y structures at a concentration of 10 μM against the 5-HT7 serotonin receptor were measured. Further, the binding affinity (Ki) values of the inventive compounds having different Y structures at a concentration of 10 μM for the 5-HT7 serotonin receptor were measured.

In assay [3] the target is 5-HT1E (Homo sapiens, UniProt P28566). The assay is described as follows: 5-HT1E receptor inhibition (Table 1). The format is binding.
Sequence of 5-HT1E (P28566 whole entry, species assumed): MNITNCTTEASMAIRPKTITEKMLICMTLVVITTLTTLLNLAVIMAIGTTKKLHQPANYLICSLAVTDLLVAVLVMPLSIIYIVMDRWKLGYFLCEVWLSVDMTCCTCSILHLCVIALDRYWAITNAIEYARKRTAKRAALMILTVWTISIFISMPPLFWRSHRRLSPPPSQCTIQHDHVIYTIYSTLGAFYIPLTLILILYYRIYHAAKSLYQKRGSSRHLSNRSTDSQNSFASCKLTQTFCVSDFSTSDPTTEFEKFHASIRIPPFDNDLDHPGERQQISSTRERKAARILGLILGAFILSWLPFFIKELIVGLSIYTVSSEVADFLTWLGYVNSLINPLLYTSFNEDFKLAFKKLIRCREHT
For assay [4], the target named is T3, 5-HT1A (Homo sapiens, UniProt P08908).
T3 sequence (P08908 1-422): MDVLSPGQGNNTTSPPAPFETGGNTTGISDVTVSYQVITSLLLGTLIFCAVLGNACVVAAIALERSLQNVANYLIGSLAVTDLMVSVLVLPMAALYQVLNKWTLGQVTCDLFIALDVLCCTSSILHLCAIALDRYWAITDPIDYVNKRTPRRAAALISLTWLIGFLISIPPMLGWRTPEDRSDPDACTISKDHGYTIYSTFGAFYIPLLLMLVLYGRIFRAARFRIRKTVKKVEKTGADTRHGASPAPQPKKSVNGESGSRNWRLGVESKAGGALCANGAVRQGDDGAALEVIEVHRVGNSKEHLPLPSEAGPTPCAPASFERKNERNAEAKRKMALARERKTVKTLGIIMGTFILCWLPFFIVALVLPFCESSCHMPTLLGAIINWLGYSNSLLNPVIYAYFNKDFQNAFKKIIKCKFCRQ
The assay is described as follows: 5-HT1A receptor inhibition (Table 3). The format is binding.

Assay [5] addresses 5-HT6 (Homo sapiens, UniProt P50406). The assay is described as follows: 5-HT6 receptor inhibition/binding (Tables 2-3). The note with it: 10 μM.

Sequence of 5-HT6 (P50406 whole entry, species assumed): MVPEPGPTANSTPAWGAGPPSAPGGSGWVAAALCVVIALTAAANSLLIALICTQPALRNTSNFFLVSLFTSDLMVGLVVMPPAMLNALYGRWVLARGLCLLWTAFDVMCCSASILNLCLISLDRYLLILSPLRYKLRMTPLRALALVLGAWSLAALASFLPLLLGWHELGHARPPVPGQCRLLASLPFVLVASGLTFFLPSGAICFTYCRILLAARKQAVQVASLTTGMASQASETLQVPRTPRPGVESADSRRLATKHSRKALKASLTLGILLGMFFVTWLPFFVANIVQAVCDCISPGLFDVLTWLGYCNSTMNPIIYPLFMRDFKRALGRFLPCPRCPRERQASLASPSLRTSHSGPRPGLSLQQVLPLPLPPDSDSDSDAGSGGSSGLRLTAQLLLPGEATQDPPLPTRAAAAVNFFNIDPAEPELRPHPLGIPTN

Consider `CCCCN(C)CCCCCC(=O)n1c2ccccc2c2ccccc21` [Example 2.1, 6-(Butyl(methyl)amino)-1-(9H-carbazol-9-yl)hexan-1-one hydrochloride], for which the inhibition constant Ki in assay [1] amounted to 207 nM; in assay [2], 680 nM. For the same compound, the results for the inhibition at 10 µM in assay [1], in assay [2] and in assay [3] were 87.4%, 82.8% and 51.3%, respectively.
For `CN(CCCCCC(=O)n1c2ccccc2c2ccccc21)Cc1ccccc1` [Example 2.2, 6-(Benzyl)methyl)amino)-1-(9H-carbazol-9-yl)hexan-1-one hydrochloride], the Ki in assay [1] came out at 1320 nM. In addition, the values for the inhibition at 10 µM in assay [1], in assay [2] and in assay [3] were 54.6%, 92% and 10.2%, respectively.
With `O=C(CCCCCN1CCCC1)n1c2ccccc2c2ccccc21` [Example 2.3, 1-(9H-carbazol-9-yl)-6-(pyrrolidin-1-yl)hexan-1-one hydrochloride], the figures for the Ki in assay [1] and in assay [2] were 764 nM and 1050 nM, respectively. The inhibition at 10 µM was determined as 76.7% in assay [1], 74% in assay [2] and 13.9% in assay [3].
Taken in the same sequence, the figures for `CC1CCCN(CCCCCC(=O)n2c3ccccc3c3ccccc32)C1` (centres unmarked) [Example 2.5, 1-(9H-carbazol-9-yl)-6-(3-methylpiperidin-1-yl)hexan-1-one hydrochloride] were 486 nM, 550 nM, 86.6%, 84.6% and -15.3%.
On to `CC1CC(C)CN(CCCCCC(=O)n2c3ccccc3c3ccccc32)C1` (centres unmarked) [Example 2.6, 1-(9H-carbazol-9-yl)-6-(3,5-dimethylpiperidin-1-yl)hexan-1-one hydrochloride], for which the Ki amounted to 454 nM in assay [1] and 833 nM in assay [2]. In addition, the inhibition at 10 µM in assay [1] was 80.6%; in assay [2] it was 77.2%; in assay [3], -21.9%.
With `O=C(CCCCCN1CCCCCC1)n1c2ccccc2c2ccccc21` [Example 2.7, 6-(Azepan-1-yl)-1-(9H-carbazol-9-yl)hexan-1-one hydrochloride], the Ki in assay [1] amounted to 411 nM; in assay [2], 616 nM. Besides, the inhibition at 10 µM was 77.2% in assay [1], 86% in assay [2] and 1.8% in assay [3].
Turning to `CC(=O)N1CCN(CCCCCC(=O)n2c3ccccc3c3ccccc32)CC1` [Example 2.11, 6-(4-Acetylpiperazin-1-yl)-1-(9H-carbazol-9-yl)hexan-1-one hydrochloride], the inhibition at 10 µM came out at 51.8% in assay [4], 51.3% in assay [1], 24.5% in assay [5] and 72.1% in assay [2]. Besides, in assay [2], the inhibitory constant (Ki) worked out at 2340 nM.
Turning to `CN1CCN(CCCCCC(=O)n2c3ccccc3c3ccccc32)CC1` [Example 2.12, 1-(9H-carbazol-9-yl)-6-(4-methylpiperazin-1-yl)hexan-1-one hydrochloride], the inhibition at 10 µM is 5.5% in assay [4], 82.5% in assay [1], 77.6% in assay [5] and 50% in assay [2]. Also, the inhibitory constant (Ki) in assay [2] came to 1910 nM.
Taken in the same sequence, the figures for `O=C(CCCCCN1CCN(Cc2ccccc2)CC1)n1c2ccccc2c2ccccc21` [Example 2.13, 6-(4-Benzylpiperazin-1-yl)-1-(9H-carbazol-9-yl)hexan-1-one hydrochloride] were 76.8%, 72.3%, 57.9%, 94.8% and 127 nM.
Taken in the same sequence, the figures for `COc1ccccc1N1CCN(CCCCCC(=O)n2c3ccccc3c3ccccc32)CC1` [Example 2.16, 1-(9H-carbazol-9-yl)-6-(4-(2-methoxyphenyl)piperazin-1-yl)hexan-1-one] were 108%, 55.8%, 30.7%, 102% and 74 nM.
For `CCCCN(C)CCCCC(=O)n1c2ccccc2c2ccccc21` [Example 2.17, 5-(Butyl(methyl)amino)-1-(9H-carbazol-9-yl)pentan-1-one hydrochloride], in assay [2], the Ki was determined as 1280 nM and the inhibition at 10 µM came out at 50%. In addition, the inhibition at 10 µM in assay [3] is 73.9%.
Turning to `CC(=O)N1CCN(CCCCC(=O)n2c3ccccc3c3ccccc32)CC1` [Example 2.27, 5-(4-Acetylpiperazin-1-yl)-1-(9H-carbazol-9-yl)pentan-1-one hydrochloride], the inhibition at 10 µM was found to be 25.4% in assay [4], 6.6% in assay [1], 13.8% in assay [5] and 64.6% in assay [2]. Also, the Ki in assay [2] worked out at 1070 nM.
Taken in the same sequence, the figures for `O=C(CCCCN1CCN(Cc2ccccc2)CC1)n1c2ccccc2c2ccccc21` [Example 2.29, 5-(4-Benzylpiperazinyl)-1-(9H-carbazol-9-yl)pentan-1-one hydrochloride] were 66.5%, 38%, 57.4%, 92% and 282 nM.
In the same order, the values of `COc1ccccc1N1CCN(CCCC(=O)n2c3ccccc3c3ccccc32)CC1` [Example 2.34, 1-(9H-carbazol-9-yl)-4-(4-(2-methoxyphenyl)piperazin-1-yl)butan-1-one] are 104%, 74.2%, 51.5%, 97.7% and 33 nM.
For `CN(CCCCCCn1c2ccccc2c2ccccc21)Cc1ccccc1` [Example 2.36, N-Benzyl-6-(9H-carbazol-9-yl)-N-methylhexane-1-amine], in assay [2], the Ki came to 1980 nM and the inhibition at 10 µM was 64%. The inhibition at 10 µM in assay [3] was -13.2%.
Take `c1ccc2c(c1)c1ccccc1n2CCCCCCN1CCCC1` [Example 2.37, 9-(6-(Pyrrolidin-1-yl)hexyl)-9H-carbazole]: in assay [2], the Ki turned out to be 1550 nM and the inhibition at 10 µM was found to be 66.9%. Also, the inhibition at 10 µM in assay [3] is 21.1%.
Taken in the same sequence, the figures for `CC1CCN(CCCCCCn2c3ccccc3c3ccccc32)CC1` [Example 2.38, 9-(6-(4-Methylpiperidin-1-yl)hexyl)-9H-carbazole] were 597 nM, 82.9% and -9.4%.
With `CC1CCCN(CCCCCCn2c3ccccc3c3ccccc32)C1` (centres unmarked) [Example 2.39, 9-(6-(3-Methylpiperidin-1-yl)hexyl)-9H-carbazole], in assay [2], the inhibitory constant (Ki) came out at 909 nM and the inhibition at 10 µM amounted to 75.6%. Also, the inhibition at 10 µM in assay [3] stood at 1.5%.
In the same order, the values of `CC1CC(C)CN(CCCCCCn2c3ccccc3c3ccccc32)C1` (centres unmarked) [Example 2.40, 9-(6-(3,5-Dimethylpiperidin-1-yl)hexyl)-9H-carbazole] are 1600 nM, 57.7% and -7.3%.
With `c1ccc2c(c1)c1ccccc1n2CCCCCCN1CCCCCC1` [Example 2.41, 9-(6-(Azepan-1-yl)hexyl)-9H-carbazole], in assay [2], the Ki was found to be 952 nM and the inhibition at 10 µM came out at 71.3%. In assay [3], the inhibition at 10 µM worked out at 2.7%.
On to `COc1ccccc1N1CCN(CCCn2c3ccccc3c3ccccc32)CC1` [Example 2.60, 9-(3-(4-(2-Methoxyphenyl)piperazin-1-yl)propyl)-9H-carbazole], for which the inhibition at 10 µM was 103% in assay [4], 12.2% in assay [5] and 90.7% in assay [2]. Moreover, the inhibitory constant (Ki) in assay [2] came to 155 nM.
